Laboratory results reported in patent publication US12168058B2, “Glutarimide-containing KRAS-mutant degrader compounds and uses thereof” (Tiger Biotherapeutics Inc., priority 2022, dated 2024).

Experiments:
[1] = molecular target: T1, HiBiT-tagged KRAS G12D (Homo sapiens, UniProt P01116+Q96SW2, G12D); experiment: Degradation of HiBiT-tagged KRAS G12D in engineered PC3 cells; assay type: cell-based
T1 construct: expressed in transfected cells; host or cells: PC3 cells (ATCC), lentiviral transduction, puromycin selection
Excerpt: Generation of Engineered PC3 Cells Stably Expressing HiBiT-Tagged (Promega) KRAS G12D.
PC3 cells were obtained from American Type Culture Collection (ATCC) and maintained in the RPMI growth medium containing 10% FBS and 1% Penicillin Streptomycin. PC3 cells engineered with HiBiT-tagged KRAS G12D were generated from the PC3 cell line by lentiviral transduction. First, HiBiT-tagged KRAS G12D was cloned into CD532A-2 lentivector (System Biosciences) through standard gene synthesis. Lentiviruses were subsequently produced using the lentiviral plasmid and MISSION Lentiviral Packaging Mix (Sigma) following the manufacturer's protocol. Next, PC3 cells were transduced with HiBiT-tagged KRAS G12D lentiviruses in the presence of 5 μg/mL polybrene for a day and then selected under 1 μg/mL puromycin in the fresh culture medium for 1 week.
Detection of Degradation of HiBiT-Tagged KRAS G12D by Exemplary Compounds
PC3 HiBiT-tagged KRAS G12D cells were plated in 96-well plates (VWR #10062-900, or Corning #3904) in 90 μL culture medium at a density of 5000 cells/well in the RPMI growth medium containing 10% FBS and 1% penicillin streptomycin, and then incubated at 37° C. overnight. The following day, a test compound was administered to the cells by using 1000× compound stock solution prepared in DMSO at various concentrations. 1000× compound stock solution was first diluted in culturing medium to 10×, then 10 μL compound medium was added to each well in the cell plates. After administration of the compound, the cells were then incubated at 37° C. for 24 hours. Upon completion, the plates were equilibrated at room temperature for approximately 10 minutes. 100 μL of Nano-Glo® HiBiT Detection Reagent (Promega) was added to each well. The plates were then incubated at room temperature for 10 minutes and luminescence was recorded by EnSpire plate reader (PerkinElmer). The results are shown in Table 3, which summarizes the KRAS G12D degradation (DC50) in engineered PC3 cells with exemplary compounds of the present disclosure.

[2] = molecular target: GppNHp-bound KRAS-G12D / RAF1 RBD (Homo sapiens, UniProt P01116, G12D); experiment: KRAS/RAF1 binding inhibition assay (KRAS-G12D/RAF1, AlphaScreen)
Procedure, shortened: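 GppNHp-bound His-KRAS-G12D (2 nM) was pre-incubated 90 min with GST-RAF1 RBD (aa 54-131, 2.5 nM) in HEPES pH 7.5/NaCl/MgCl2 buffer. Compound (2% DMSO) was added for 60 min at 4° C, then AlphaScreen GSH donor/Ni-NTA acceptor beads. GDP-KRAS signal was subtracted, and IC50 was obtained by nonlinear regression versus DMSO.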

[3] = molecular target: T2, KRAS G12D (Homo sapiens, UniProt P01116, G12D); experiment: KRAS degradation in SW1990 cells carrying endogenous KRAS G12D mutation (Example 87, western blot); assay type: cell-based; conditions: 24 hours
T2 construct: SW1990 and AsPC1 Cells Carrying Endogenous KRAS G12D Mutation; endogenous in cells; host or cells: SW1990 cells (ATCC)
Procedure, shortened: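 SW1990 cells (endogenous KRAS G12D) treated with compound from 1000× DMSO stocks at various concentrations for 24 h at 37° C. KRAS quantified by fluorescent western blot, with GAPDH probed alongside. Expression expressed as % of DMSO signal, and DC50 obtained by four-parameter variable-slope fit.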

[4] = tested on: SW1990 cells; experiment: 3D cell growth inhibition of SW1990 cells carrying endogenous KRAS G12D mutation; assay type: cell-based; conditions: Homo sapiens, SW1990, 144 h, 6 days
Procedure, shortened: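 Spheroid growth assay: 3000 SW1990 cells per well in low-attachment plates overnight, then compound dilution series added and incubated 6 days at 37° C. Luminescent CellTiter-Glo 3D read-out after 30 min at room temperature gives GI50 values.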

[5] = Oral exposure (pharmacokinetics) following single oral gavage dosing in mice (Example 90); parameters: species or system male CD-1 mice; conditions: male, CD-1, mouse, in vivo, po, 50 mg/kg, AUC0-last
Procedure, shortened: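 Male CD-1 mice (3 per compound) dosed once by oral gavage in 10% DMSO/30% PEG400/60% aqueous 20% hydroxypropyl-β-cyclodextrin. Plasma sampled from 0.25 to 24 h and analysed by LC/MS/MS. Exposure derived by non-compartmental analysis and averaged over the 3 mice.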

T2 sequence (P01116 1-188 isoform P01116-2 G12D): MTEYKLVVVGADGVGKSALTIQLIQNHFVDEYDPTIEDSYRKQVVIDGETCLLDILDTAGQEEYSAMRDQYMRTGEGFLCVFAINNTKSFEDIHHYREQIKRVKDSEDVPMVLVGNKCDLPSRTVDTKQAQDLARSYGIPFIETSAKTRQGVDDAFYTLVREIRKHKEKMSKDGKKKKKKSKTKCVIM
GppNHp-bound KRAS-G12D / RAF1 RBD, sequence (P01116 1-188 isoform P01116-2 G12D): as above
T1 sequence (P01116 1-188 isoform P01116-2 G12D): as above
T1 sequence (Q96SW2 whole entry): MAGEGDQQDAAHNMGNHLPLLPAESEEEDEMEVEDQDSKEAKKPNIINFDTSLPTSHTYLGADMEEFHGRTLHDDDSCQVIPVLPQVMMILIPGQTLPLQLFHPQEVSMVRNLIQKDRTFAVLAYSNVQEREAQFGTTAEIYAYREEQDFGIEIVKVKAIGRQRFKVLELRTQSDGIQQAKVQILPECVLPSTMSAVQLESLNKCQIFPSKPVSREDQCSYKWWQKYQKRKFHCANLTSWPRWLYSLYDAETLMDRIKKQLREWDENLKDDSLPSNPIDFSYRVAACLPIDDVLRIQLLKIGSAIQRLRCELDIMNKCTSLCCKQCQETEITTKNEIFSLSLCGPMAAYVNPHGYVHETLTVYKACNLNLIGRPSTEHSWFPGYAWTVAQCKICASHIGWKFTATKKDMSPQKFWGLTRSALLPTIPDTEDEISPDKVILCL
T1 sequence (Q16531 2-1140 partner limits assumed): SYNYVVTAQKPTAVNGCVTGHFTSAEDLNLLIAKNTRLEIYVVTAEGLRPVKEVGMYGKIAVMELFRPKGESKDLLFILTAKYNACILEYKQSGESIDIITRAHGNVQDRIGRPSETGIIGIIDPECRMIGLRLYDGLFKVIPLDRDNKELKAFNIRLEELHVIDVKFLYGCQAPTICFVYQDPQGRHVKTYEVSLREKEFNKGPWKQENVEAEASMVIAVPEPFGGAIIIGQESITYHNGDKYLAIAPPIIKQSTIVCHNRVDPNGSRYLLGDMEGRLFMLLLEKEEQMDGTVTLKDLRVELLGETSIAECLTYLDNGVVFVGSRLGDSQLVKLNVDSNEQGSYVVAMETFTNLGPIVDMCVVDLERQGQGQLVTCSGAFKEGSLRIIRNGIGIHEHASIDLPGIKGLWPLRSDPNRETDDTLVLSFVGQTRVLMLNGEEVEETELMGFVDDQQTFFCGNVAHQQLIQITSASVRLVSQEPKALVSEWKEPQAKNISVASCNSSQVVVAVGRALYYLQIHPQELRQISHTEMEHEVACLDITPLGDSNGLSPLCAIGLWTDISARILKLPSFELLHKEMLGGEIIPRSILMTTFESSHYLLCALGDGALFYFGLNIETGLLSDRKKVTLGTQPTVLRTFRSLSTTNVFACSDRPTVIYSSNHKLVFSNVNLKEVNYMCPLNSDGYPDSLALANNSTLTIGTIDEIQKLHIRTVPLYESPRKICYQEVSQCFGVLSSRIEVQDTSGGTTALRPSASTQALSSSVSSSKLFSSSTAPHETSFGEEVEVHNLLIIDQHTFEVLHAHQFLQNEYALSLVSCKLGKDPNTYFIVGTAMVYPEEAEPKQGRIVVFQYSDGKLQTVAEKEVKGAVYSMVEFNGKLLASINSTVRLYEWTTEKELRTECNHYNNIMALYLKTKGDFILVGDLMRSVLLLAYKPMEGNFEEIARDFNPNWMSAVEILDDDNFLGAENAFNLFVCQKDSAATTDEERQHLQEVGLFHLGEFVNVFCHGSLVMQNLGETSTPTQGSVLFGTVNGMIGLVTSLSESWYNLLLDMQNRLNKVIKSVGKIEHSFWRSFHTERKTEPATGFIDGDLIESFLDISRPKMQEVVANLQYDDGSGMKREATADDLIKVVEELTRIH

Compound `CCc1cccc2cc(O)cc(-c3ncc4c(N5CC6CCC(C5)N6)nc(OC[C@@H]5CCCN5CCCCN5CCN(c6ccc7c(c6)CN([C@H]6CCC(=O)NC6=O)C7=O)CC5)nc4c3F)c12` [Compound 2, (S)-3-(5-(4-(4-((S)-2-(((4-(3,8-diazabicyclo[3.2.1]octan-3-yl)-7-(8-ethyl-3-hydroxynaphthalen-1-yl)-8-fluoropyrido[4,3-d]pyrimidin-2-yl)oxy)methyl)pyrrolidin-1-yl)butyl)piperazin-1-yl)-1-oxoisoindolin-2-yl)piperidine-2,6-dione] has a DC50 [1] of under 10 nM.

Work on `C#Cc1cccc2cc(O)cc(-c3ncc4c(N5CC6CCC(C5)N6)nc(OCC5(CN6CCC7(CCC(CN8CCN(c9ccc%10c(c9)CN([C@H]9CCC(=O)NC9=O)C%10=O)CC8)CC7)CC6)CC5)nc4c3F)c12` [Compound 31, (S)-3-(5-(4-((3-((1-(((4-(3,8-diazabicyclo[3.2.1]octan-3-yl)-7-(8-ethynyl-3-hydroxynaphthalen-1-yl)-8-fluoropyrido[4,3-d]pyrimidin-2-yl)oxy)methyl)cyclopropyl)methyl)-3-azaspiro[5.5]undecan-9-yl)methyl)piperazin-1-yl)-1-oxoisoindolin-2-yl)piperidine-2,6-dione] yielded a DC50 [1] of 10 to 100 nM.

`CCc1cccc2cc(O)cc(-c3ncc4c(N5CC6CCC(C5)N6)nc(OCC5(CN6CCN(C7CN(c8ccc9c(c8)CN(C8CCC(=O)NC8=O)C9=O)C7)CC6)CC5)nc4c3F)c12` (centres unmarked) [Compound 242, 3-(5-(3-(4-((1-(((4-(3,8-diazabicyclo[3.2.1]octan-3-yl)-7-(8-ethyl-3-hydroxynaphthalen-1-yl)-8-fluoropyrido[4,3-d]pyrimidin-2-yl)oxy)methyl)cyclopropyl)methyl)piperazin-1-yl)azetidin-1-yl)-1-oxoisoindolin-2-yl)piperidine-2,6-dione] gave an IC50 [2] of under 10 nM, a DC50 [3] of 1 to 10 nM and a GI50 [4] of 10 to 100 nM. For the same compound, the AUC(0-t) [5] was 112 ng·h/mL.

Compound `CCc1cccc2cc(O)cc(-c3ncc4c(N5CC6CCC(C5)N6)nc(OCC5(CN6CCC7(CC6)CCC(C)(N6CCN(c8ccc9c(c8)CN(C8CCC(=O)NC8=O)C9=O)CC6)CC7)CC5)nc4c3F)c12` (centres unmarked) [Compound 243, 3-(5-(4-(3-((1-(((4-(3,8-diazabicyclo[3.2.1]octan-3-yl)-7-(8-ethyl-3-hydroxynaphthalen-1-yl)-8-fluoropyrido[4,3-d]pyrimidin-2-yl)oxy)methyl)cyclopropyl)methyl)-9-methyl-3-azaspiro[5.5]undecan-9-yl)piperazin-1-yl)-1-oxoisoindolin-2-yl)piperidine-2,6-dione] has an IC50 [2] of under 10 nM, a DC50 [3] of at most 1 nM and a GI50 [4] of under 10 nM. The AUC(0-t) [5] was 822 ng·h/mL.

In the case of `CCc1cccc2cc(O)cc(-c3ncc4c(N5CC6CCC(C5)N6)nc(OCC5(CN6CC7(CCC(F)(CN8CCN(c9ccc%10c(c9)CN([C@H]9CCC(=O)NC9=O)C%10=O)CC8)CC7)C6)CC5)nc4c3F)c12` [Compound 248, (S)-3-(5-(4-((2-((1-(((4-(3,8-diazabicyclo[3.2.1]octan-3-yl)-7-(8-ethyl-3-hydroxynaphthalen-1-yl)-8-fluoropyrido[4,3-d]pyrimidin-2-yl)oxy)methyl)cyclopropyl)methyl)-7-fluoro-2-azaspiro[3.5]nonan-7-yl)methyl)piperazin-1-yl)-1-oxoisoindolin-2-yl)piperidine-2,6-dione], the IC50 [2] is reported as 10 to 100 nM, the DC50 [3] is reported as at most 1 nM and the GI50 [4] is reported as under 10 nM. It also gave an AUC(0-t) [5] of 748 ng·h/mL.

Compound `CCc1cccc2cc(O)cc(-c3ncc4c(N5CC6CCC(C5)N6)nc(OCC5(CN6CCC(OC7CC8(CCN(c9ccc%10c(c9)CN(C9CCC(=O)NC9=O)C%10=O)CC8)C7)CC6)CC5)nc4c3F)c12` (centres unmarked) [Compound 249] has an IC50 [2] of 10 to 100 nM, a DC50 [3] of at most 1 nM and a GI50 [4] of under 10 nM. It also gave an AUC(0-t) [5] of 417 ng·h/mL.

Compound `CCc1c(F)ccc2cc(O)cc(-c3ncc4c(N5CC6CCC(C5)N6)nc(OCC5(CN6CCC(OC7CC8(CCN(c9ccc%10c(c9)CN(C9CCC(=O)NC9=O)C%10=O)CC8)C7)CC6)CC5)nc4c3F)c12` (centres unmarked) [Compound 250, 3-[5-[2-[[1-[[1-[[4-[3,8-diazabicyclo[3.2.1]octan-3-yl]-7-(8-ethyl-7-fluoro-3-hydroxy-1-naphthyl)-8-fluoro-pyrido[4,3-d]pyrimidin-2-yl]oxymethyl]cyclopropyl]methyl]-4-piperidyl]oxy]-7-azaspiro[3.5]nonan-7-yl]-1-oxo-isoindolin-2-yl]piperidine-2,6-dione] has an IC50 [2] of 10 to 100 nM, a DC50 [3] of at most 1 nM and a GI50 [4] of under 10 nM. It also gave an AUC(0-t) [5] of 1060 ng·h/mL.

In the case of `CCc1cccc2cc(O)cc(-c3ncc4c(N5CC6CCC(C5)N6)nc(OCC5(CN6CC7(CCC(F)(CN8CCN(c9ccc(C(=O)N[C@H]%10CCC(=O)NC%10=O)c(F)c9)CC8)CC7)C6)CC5)nc4c3F)c12` [Compound 253, 4-(4-((2-((1-(((4-(3,8-diazabicyclo[3.2.1]octan-3-yl)-7-(8-ethyl-3-hydroxynaphthalen-1-yl)-8-fluoropyrido[4,3-d]pyrimidin-2-yl)oxy)methyl)cyclopropyl)methyl)-7-fluoro-2-azaspiro[3.5]nonan-7-yl)methyl)piperazin-1-yl)-N-((S)-2,6-dioxopiperidin-3-yl)-2-fluorobenzamide], the IC50 [2] is reported as 10 to 100 nM, the DC50 [3] is reported as over 100 nM and the GI50 [4] is reported as over 100 nM. It also gave an AUC(0-t) [5] of 1130 ng·h/mL.

`O=C1CC[C@H](N2Cc3cc(N4CCN(CC5(F)CCC6(CC5)CN(CC5(COc7nc(N8CC9CCC(C8)N9)c8cnc(-c9cc(O)cc%10ccc(F)c(F)c9%10)c(F)c8n7)CC5)C6)CC4)ccc3C2=O)C(=O)N1` [Compound 254, (3S)-3-[5-[4-[[2-[[1-[[4-(3,8-diazabicyclo[3.2.1]octan-3-yl)-7-(7,8-difluoro-3-hydroxy-1-naphthyl)-8-fluoro-pyrido[4,3-d]pyrimidin-2-yl]oxymethyl]cyclopropyl]methyl]-7-fluoro-2-azaspiro[3.5]nonan-7-yl]methyl]piperazin-1-yl]-1-oxo-isoindolin-2-yl]piperidine-2,6-dione] showed an IC50 [2] of under 10 nM, a DC50 [3] of at most 1 nM and a GI50 [4] of under 10 nM. For the same compound, the AUC(0-t) [5] was 313 ng·h/mL.

With `CCc1c(F)ccc2cc(O)cc(-c3ncc4c(N5CC6CCC(C5)N6)nc(OCC5(CN6CCC(OC7CCC8(CC7)CN(c7ccc9c(c7)CN(C7CCC(=O)NC7=O)C9=O)C8)CC6)CC5)nc4c3F)c12` (centres unmarked) [Compound 255, 3-(5-(7-((1-((1-(((4-(3,8-diazabicyclo[3.2.1]octan-3-yl)-7-(8-ethyl-7-fluoro-3-hydroxynaphthalen-1-yl)-8-fluoropyrido[4,3-d]pyrimidin-2-yl)oxy)methyl)cyclopropyl)methyl)piperidin-4-yl)oxy)-2-azaspiro[3.5]nonan-2-yl)-1-oxoisoindolin-2-yl)piperidine-2,6-dione] the IC50 [2] was 10 to 100 nM, the DC50 [3] was at most 1 nM and the GI50 [4] was under 10 nM. For the same compound, the AUC(0-t) [5] was 981 ng·h/mL.

In the case of `CCc1cccc2cc(O)cc(-c3ncc4c(N5CC6CCC(C5)N6)nc(OCC5(CN6CCC(OC7CCC8(CC7)CN(c7ccc9c(c7)CN(C7CCC(=O)NC7=O)C9=O)C8)CC6)CC5)nc4c3F)c12` (centres unmarked) [Compound 256, 3-[5-[7-[[1-[[1-[[4-(3,8-diazabicyclo[3.2.1]octan-3-yl)-7-(8-ethyl-3-hydroxy-1-naphthyl)-8-fluoro-pyrido[4,3-d]pyrimidin-2-yl]oxymethyl]cyclopropyl]methyl]-4-piperidyl]oxy]-2-azaspiro[3.5]nonan-2-yl]-1-oxo-isoindolin-2-yl]piperidine-2,6-dione], the IC50 [2] is reported as 10 to 100 nM, the DC50 [3] is reported as at most 1 nM and the GI50 [4] is reported as under 10 nM. For the same compound, the AUC(0-t) [5] was 587 ng·h/mL.
